The source of these data is PubChem BioAssay (NCI).

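In this assay, cells in 96-well plates receive the compound at five concentrations for 48 hours. Endpoints are linearly interpolated between the surrounding concentrations. TGI denotes the concentration required for complete inhibition of growth.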

Test systems include COLO 205 colon; HOP-62 NSCLC; HT29 colon; K-562 leukemia; KM12 colon; MOLT-4 leukemia; NCI-H226 lung; NCI-H522 lung; OVCAR-4 ovarian; OVCAR-5 ovarian; RPMI-8226 leukemia; RXF 393 renal; SR leukemia; U251 CNS; SF-268 CNS.
Common to all, as to assay: inhibition of tumour cell growth, NCI panel, 48 h

With `CCCCCCCC(=O)OCC1OC(OC)C(NC(=O)N(CCCl)N=O)C(O)C1O` (centres undefined), the TGI with COLO 205 colon was 30.8 µM; in the assay with HOP-62 NSCLC, 23.1 µM; in the assay with HT29 colon it was 50.3 µM; in the assay on K-562 leukemia, greater than 58 µM; with KM12 colon it was 27.7 µM; in the assay with MOLT-4 leukemia, 36.1 µM. The TGI is 42.1 µM in the assay on NCI-H226 lung; 16 µM in the assay with NCI-H522 lung; greater than 100 µM in the assay on OVCAR-4 ovarian; 97.5 µM with OVCAR-5 ovarian; 53.1 µM with RPMI-8226 leukemia; 34.3 µM in the assay on RXF 393 renal. For the same molecule, the TGI with SR leukemia is 23.9 µM; in the assay on U251 CNS it was greater than 70.1 µM.
With `Cc1nn(C)cc1P(=S)(c1ccccc1)c1ccccc1`, the TGI in the assay with COLO 205 colon, in the assay with HOP-62 NSCLC, in the assay on HT29 colon, in the assay with K-562 leukemia, in the assay on KM12 colon and in the assay with MOLT-4 leukemia was greater than 100 µM throughout. For the same molecule, the TGI in the assay with OVCAR-4 ovarian, in the assay with OVCAR-5 ovarian, in the assay on RPMI-8226 leukemia, in the assay on RXF 393 renal, in the assay on SF-268 CNS and in the assay on SR leukemia was greater than 100 µM in each case. In addition, in the assay with U251 CNS, the TGI is greater than 100 µM.
For the molecule `CN1Cc2cc3c(cc2-c2ccccc21)OCO3`, the TGI in the assay on COLO 205 colon, in the assay with HT29 colon, in the assay with K-562 leukemia, in the assay with KM12 colon, in the assay on MOLT-4 leukemia and in the assay with NCI-H522 lung was greater than 100 µM each time. Further, the TGI in the assay on OVCAR-4 ovarian, with OVCAR-5 ovarian, in the assay on RPMI-8226 leukemia, with RXF 393 renal, in the assay with SF-268 CNS and in the assay with SR leukemia was greater than 100 µM throughout. In addition, the TGI in the assay on U251 CNS was greater than 100 µM.
Turning to `CCOc1ccc(NC(=O)C2=C(C)NC(C)=C(C(=O)Nc3ccc(OCC)cc3)C2c2ccccc2)cc1`, the TGI in the assay on COLO 205 colon, with HOP-62 NSCLC, in the assay on HT29 colon, in the assay on K-562 leukemia, with KM12 colon and in the assay with MOLT-4 leukemia was greater than 100 µM in each case. Besides, the TGI in the assay with NCI-H226 lung, in the assay with NCI-H522 lung, in the assay with OVCAR-4 ovarian, in the assay with OVCAR-5 ovarian, in the assay with RPMI-8226 leukemia and in the assay on RXF 393 renal was greater than 100 µM throughout. For the same molecule, the TGI in the assay on SF-268 CNS and with U251 CNS was greater than 100 µM each time.
On to `CCOC(=O)c1ccc(NC(=O)SCCC(=O)O)cc1`, for which the TGI with COLO 205 colon, with HOP-62 NSCLC, in the assay on HT29 colon, in the assay on K-562 leukemia, in the assay on KM12 colon and in the assay on MOLT-4 leukemia was greater than 100 µM each time. Further, the TGI with NCI-H226 lung was greater than 100 µM; with OVCAR-5 ovarian, greater than 100 µM; in the assay with RPMI-8226 leukemia it was greater than 100 µM; with RXF 393 renal it was greater than 100 µM; in the assay on SF-268 CNS, 54 µM; in the assay on SR leukemia it was greater than 100 µM. In the assay with U251 CNS, the TGI is greater than 100 µM.
On to `COc1ccc(C=C(c2ccc(OCc3ccccc3)cc2)c2ccc(OCc3ccccc3)cc2)cc1`, for which the TGI in the assay with COLO 205 colon, in the assay with HOP-62 NSCLC, in the assay with HT29 colon, with KM12 colon, in the assay with NCI-H226 lung and in the assay with NCI-H522 lung was greater than 100 µM each time. Moreover, the TGI in the assay on OVCAR-4 ovarian, in the assay with OVCAR-5 ovarian, with RPMI-8226 leukemia, in the assay on RXF 393 renal, in the assay with SF-268 CNS and in the assay on SR leukemia was greater than 100 µM throughout. The molecule further displayed a TGI in the assay with U251 CNS greater than 100 µM.
As to `COc1c(C)cc2c(c1O)C1NC(C2)[C@H](O)N2C3COC(=O)[C@@]4(CS[C@@H](c5c(OC(C)=O)c(C)c6c(c53)OCO6)C12)NCCC1=C4NC2C=CC=CC12` (some centres undefined), the TGI in the assay on HOP-62 NSCLC is less than 0.01 µM; in the assay with HT29 colon, 0.107 µM; with K-562 leukemia it was 0.0202 µM; in the assay with MOLT-4 leukemia, less than 0.01 µM; in the assay with NCI-H226 lung it was less than 0.01 µM; in the assay on RPMI-8226 leukemia it was 0.0161 µM. Moreover, the TGI was less than 0.01 µM in the assay with RXF 393 renal, 0.0304 µM with SF-268 CNS and less than 0.01 µM in the assay with U251 CNS.
Regarding `O=c1[nH]cnc2c1CCCN2`, the TGI in the assay with COLO 205 colon, in the assay on HOP-62 NSCLC, in the assay with HT29 colon, with K-562 leukemia, in the assay on KM12 colon and in the assay with MOLT-4 leukemia was greater than 100 µM each time. Besides, the TGI with NCI-H522 lung, with OVCAR-5 ovarian, with RPMI-8226 leukemia, with RXF 393 renal, in the assay with SF-268 CNS and in the assay on SR leukemia was greater than 100 µM throughout. Moreover, the TGI in the assay on U251 CNS was greater than 100 µM.
As for `Brc1cc2c(cc1C1SCCS1)OCO2`, the TGI with HOP-62 NSCLC, with HT29 colon, with K-562 leukemia, in the assay with KM12 colon, in the assay with MOLT-4 leukemia and in the assay on NCI-H522 lung was greater than 100 µM throughout. Further, the TGI in the assay with OVCAR-4 ovarian, in the assay with OVCAR-5 ovarian, with RPMI-8226 leukemia, in the assay on SF-268 CNS, in the assay with SR leukemia and in the assay with U251 CNS was greater than 100 µM each time.
